# Test results published in patent publication US10500274B2, “Methods for reducing viral load in HIV-1 infected patients” (CytoDyn Inc., priority 2008, dated 2019).
# Read-outs that look alike come from different tables or passages of the source.
# Assays:
# [1] = system: reporter viruses pseudotyped with HIV-1SF162 envelope (U87-CD4-CCR5 cells); experiment: HIV-1 pseudovirus assay, SF162 envelope; assay type: cell-based; settings: Human immunodeficiency virus 1, U87/CD4/CCR5
# Description: A self-inactivating (SIN) vector was derived from the pNL4-3ΔEnv-luciferase vector (Dragic et al. 1996) by deleting 507 basepairs in the U3 region of the 3′ long terminal repeat (LTR) so as to remove the TATA box and transcription factor binding sites. The human cytomegalovirus promoter was inserted upstream of the luciferase (luc) gene to enable expression of luciferase following integration.
# Reporter viruses pseudotyped with HIV-1JR-FL or HIV-15F162 envelopes were generated by cotransfection of 293T cells with the SIN vector and the appropriate pcDNA env-expressing vector as previously described (Dragic et al. 1996). U87-CD4-CCR5 cells (8,000/well; NIH AIDS Research and Reference Reagent Program) were infected with 125-375 pg of HIV-L pseudoviruses in 384-well plates in the presence or absence of inhibitor(s). Cultures were incubated for 72 h at 37° C. in DMEM containing 10% fetal bovine serum, […], 0.3 mg/mL geneticin, antibiotics, and 0.5% DMSO. Luciferase activity (relative light units or RLU) was measured using BrightGlo reagent (Promega, Madison, Wis.) according to the manufacturer's instructions.
# Experimental design and data analysis were based on the combination index (CI) method (Chou et al. 1991; Chou et al. 1984). […] The mutually exclusive CI formula was used for combinations of CCR5 inhibitors, while the mutually non-exclusive formula was utilized for combinations of inhibitors to distinct targets (Chou et al. 1991). Each test was conducted 4-12 times. Synergy, additivity and antagonism are indicated by CI<1, CI=1 and CI>1, respectively.
# In the Bonferroni correction, P=α/n, where n is the number of comparisons. Twenty-two synergy comparisons (11 compounds×2 CI values) were made based on data generated in the membrane fusion assay, resulting in a corrected P value of 0.0023.
# [2] = system: HIV-1JR-FL envelope-mediated membrane fusion; experiment: microbe, parasite or virus in culture; assay type: cell-based; set-up: CI90: unit not given beside the values
# [3] = system: reporter viruses pseudotyped with HIV-1JR-FL envelope (U87-CD4-CCR5 cells); experiment: microbe, parasite or virus in culture; assay type: cell-based; settings: for IC50 / IC90: Human immunodeficiency virus 1, U87/CD4/CCR5
# [4] = system: HIV-1; settings: dose-dependent, treatment period of 10-14 days; cited from earlier work
# [5] = molecular target: CCR5 (Homo sapiens, UniProt P51681); settings: cited from earlier work
# [6] = system: HIV-1 Env-mediated fusion (HeLa-EnvJRFL with CEM NKR-CCR5 cells); experiment: HIV-1 RET cell-cell fusion assay, combination testing (Part II); settings: PRO 140 in combination with the labelled inhibitor, 1:1 molar ratio
# Description: Serial dilutions of small molecules were conducted in DMSO. Subsequent dilutions were conducted in medium to achieve a final DMSO concentration in the assay of 0.5%. Peptides and mAbs were diluted in PBS in the absence of DMSO.
# Briefly, fluorescein octadecyl ester (F18; Molecular Probes, Eugene, Oreg.; 5 mg/ml in ethanol), was diluted 1:800 in DMEM labeling medium (DMEM; Invitrogen, Carlsbad, Calif.) with 10% fetal bovine serum (FBS; HyClone, Logan, Utah) and adjusted to an A506 of 0.34±10%. […] Both dyes were further diluted 2-fold by addition to cells in T75-cm^2 flasks. HeLa-EnvJRFL and CEM NKR-CCR5 cells were incubated overnight in F18- and R18-containing culture medium, respectively. […] The plates were then read on a fluorescence plate reader (Victor^2, Perkin Elmer, Boston, Mass.) using the excitation/emission filter combinations shown in Table 6a. […]
# IC50 values were generated for all combinations as described above. Combination Index (CI) and Dose Reduction (DR) values were calculated according to the following formulas:
# Combinations with CI<1 are determined to be synergistic, whereas combinations with CI>1 are determined to be antagonistic. […]
# In this assay, effector cells are labeled with the F18 dye and target cells with the R18 dye. […] Drug susceptibility is measured by adding serial concentrations of drugs to target cells prior to addition of effector cells. […]
# [7] = Human immunodeficiency virus 1, 1st inhibitor alone
# Sequence of CCR5 (P51681 whole entry, the tested form may be a part): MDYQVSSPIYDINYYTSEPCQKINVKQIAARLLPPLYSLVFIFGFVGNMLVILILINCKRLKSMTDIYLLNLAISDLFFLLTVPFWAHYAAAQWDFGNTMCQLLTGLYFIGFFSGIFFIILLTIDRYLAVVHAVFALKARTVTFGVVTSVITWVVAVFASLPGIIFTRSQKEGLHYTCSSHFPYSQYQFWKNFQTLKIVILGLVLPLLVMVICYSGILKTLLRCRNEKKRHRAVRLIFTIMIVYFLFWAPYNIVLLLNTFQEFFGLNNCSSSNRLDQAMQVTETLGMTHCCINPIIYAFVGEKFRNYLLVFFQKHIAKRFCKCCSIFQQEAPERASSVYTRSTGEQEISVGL
compound,measurement,setting,value
"COc1ccnc2[nH]cc(C(=O)C(=O)N3CCN(C(=O)c4ccccc4)C[C@H]3C)c12 [BMS-378806, (R)—N-(benzoyl)-3-methyl-N′-[(4-methoxy-7-azaindol-3-yl)-oxoacetyl]-piperazine]",IC50,[1],0.03 nM
same,IC90,[1],0.42 nM
same,IC50,[2]; [7],5.2 nM
same,IC90,[2]; [7],20 nM
same,IC50,[3],1.2 nM
same,IC90,[3],11 nM
CCCCN1C(=O)[C@@H]([C@H](O)C2CCCCC2)NC(=O)C12CCN(Cc1ccc(Oc3ccc(C(=O)O)cc3)cc1)CC2 [GW873140],mean reduction in HIV-1 RNA levels,[4],~1 log10
CCO/N=C(\c1ccc(Br)cc1)C1CCN(C2(C)CCN(C(=O)c3c(C)cc[n+]([O-])c3C)CC2)CC1 [SCH-C],mean reduction in HIV-1 RNA levels,[4],~1 log10
"COC[C@@H](c1ccc(C(F)(F)F)cc1)N1CCN(C2(C)CCN(C(=O)c3c(C)ncnc3C)CC2)C[C@@H]1C [SCH-D, 1-[(4,6-dimethyl-5-pyrimidinyl)carbonyl]-4-[4-[2-methoxy-1(R)-4-(trifluoromethyl)phenyl]ethyl-3(S)-methyl-1-piperazinyl]-4-methylpiperidine]",CI90,"[2]; SCH-D with UK-427,857 1:1, experiment depicted in FIG. 15B",0.73
same,IC90,"[2]; SCH-D with UK-427,857, 1:1 fixed molar ratio, FIG. 15B, read-out: IC90 of the combination",31 nM
same,mean reduction in HIV-1 RNA levels,[4],~1 log10
CCCCOCCOc1ccc(-c2ccc3c(c2)/C=C(/C(=O)Nc2ccc([S+]([O-])Cc4cncn4CCC)cc2)CCCN3CC(C)C)cc1 (stereo not drawn) [TAK-652],anti-HIV-1 activity in vitro,"[5]; Baba et al., 2005",nanomolar range
same,oral bioavailability,"[5]; Baba et al., 2005",orally bioavailable
same,tolerability,"[5]; TAK-779: Iizawa et al., 2003, TAK-652: single oral dose, healthy male volunteers",safe and well tolerated
"Cc1nnc(C(C)C)n1C1CC2CCC(C1)N2CC[C@H](NC(=O)C1CCC(F)(F)CC1)c1ccccc1 (stereo partly drawn) [UK-427,857]",IC50,[2]; [7],5.3 nM
same,IC90,[2]; [7],27 nM
same,IC90,"[2]; Human immunodeficiency virus 1, inhibitor alone, experiment depicted in FIG. 15A",21 nM
same,IC90,"[2]; Human immunodeficiency virus 1, inhibitor alone, experiment depicted in FIG. 15B",59 nM
same,IC50,"[2]; Human immunodeficiency virus 1, read-out: IC50 of the combination, UK-427,857 with PRO 140, 1:1 fixed molar ratio, total concentration, FIG. 15A",2.1 nM
same,IC90,"[2]; Human immunodeficiency virus 1, read-out: IC90 of the combination, UK-427,857 with PRO 140, 1:1 fixed molar ratio, FIG. 15A",4.6 nM
same,CI90,"[2]; UK-427,857 with PRO 140 1:1, experiment depicted in FIG. 15A",0.32
Cc1ccnc2c1NC(=O)c1cccnc1N2C1CC1 [nevirapine],IC50,[1],42 nM
same,IC90,[1],280 nM
same,IC50,[3],30 nM
same,IC90,[3],310 nM
Cc1cn([C@H]2C[C@H](N=[N+]=[N-])[C@@H](CO)O2)c(=O)[nH]c1=O [zidovudine],IC50,[1],86 nM
same,IC90,[1],2100 nM
same,IC50,[3],140 nM
same,IC90,[3],1900 nM
"RANTES: CC-chemokine, natural peptide ligand of CCR5, purchased from R&D Systems",Mean CT (Combination Index at IC50 value),[6],0.59 ± 0.08
same,CI values (50% and 90% inhibition),[2]; in combination with PRO 140,Similarly potent synergy
same,CI50,"[2]; labelled 1st inhibitor with 2nd inhibitor UK-427,857, equimolar",Similarly potent synergy
same,inhibition of HIV-1 pseudovirus entry (in words),[3]; inhibitor alone,"Neither TAK-779 nor RANTES mediated consistent, high-level inhibition"
